This assay concerns the target T1, human metabotropic glutamate 7 receptor (hmGlu7) (Homo sapiens, UniProt Q14831).
T1 construct: expressed in transfected cells
In words: mGlu7 assay on HEK-expressing human mGlu7: fluorescent cell based-Ca2+ mobilization assay (FLIPR), inhibition of EC80 L-AP4 response. To be noted: HEK-293 cells expressing hmGlu7, EC80 L-AP4; mean of at least three independent experiments in duplicate; read-out: Ca^2+ Flux (mean IC50). An excerpt: mGlu7 Assay on HEK-Expressing Human mGLU7
The cDNA encoding the human metabotropic glutamate 7 receptor (hmGlu7), (accession number NM_181874.2, NCBI Nucleotide database browser), was subcloned into an expression vector containing also the hygromycin resistance gene. In parallel, the cDNA encoding a G protein allowing redirection of the activation signal to intracellular calcium flux was subcloned into a different expression vector containing also the Puromycin resistance gene. Transfection of both these vectors into HEK293 cells with PolyFect reagent (Qiagen) according to supplier's protocol, and hygromycin and puromycin treatment allowed selection of antibiotic resistant cells which had integrated stably one or more copies of the plasmids. Positive cellular clones expressing hmGlu7 were identified in a functional assay measuring changes in calcium fluxes in response to glutamate and L-AP4 or known mGlu7 orthosteric antagonists.
HEK-293 cells expressing hmGlu7 were maintained in media containing DMEM, Fetal Bovine Serum (10%), GlutaMAX™ (2 mM), penicillin (100 units/mL), streptomycin (100 μg/mL), geneticin (100 μg/mL) and hygromycin-B (40 μg/mL) and puromycin (1 μg/mL) at 37° C. with 5% CO2 in a humidified atmosphere.
Human mGlu7 HEK-293 cells were plated out 24 hours prior to a fluorescent cell-based calcium mobilization assay using FLIPR^384 assay (Molecular Device, Sunnyvale, CA, USA) in black-walled, clear-bottomed, poly-L-ornithine-coated 384-well plates at a density of 25,000 cells/well in a glutamine/glutamate free DMEM medium containing fetal bovine serum (10%), penicillin (100 units/mL), streptomycin (100 μg/mL) and doxycyline (1 μg/ml) at 37° C. with 5% CO2 in a humidified atmosphere.
On the day of the assay, the medium was aspirated and the cells were loaded with a 3 μM solution of Fluo4-AM (LuBioScience, Lucerne, Switzerland) in 0.03% pluronic acid. After 1 hour at 37° C./5% CO2, the non incorporated dye was removed by washing cell plate with the assay buffer. All assays were performed in a pH 7.4 buffered-Solution containing 20 mM HEPES, 143 mM NaCl, 6 mM KCl, 1 mM MgSO4, 1 mM CaCl2, 0.125 mM sulfinpyrazone and 0.1% glucose.
After 10 s of basal fluorescence recording, various concentrations of the compounds of the invention were added to the cells. Changes in fluorescence levels were first monitored for 180 s in order to detect any agonist activity of the compounds. Then the cells were stimulated by an EC80 L-AP4 concentration for an additional 110 s in order to measure inhibiting activities of the compounds of the invention. EC80 L-AP4 concentration is the concentration giving 80% of the maximal glutamate response.
The concentration-response curves of L-AP4 or representative compounds of the present invention were generated using the Prism GraphPad software (Graph Pad Inc, San Diego, USA). The curves were fitted to a four-parameter logistic equation:
(Y=Bottom+(Top−Bottom)/(1+10^((Log IC50−X)*Hill Slope)
allowing determination of IC50 values.
The Table 3 below represents the mean IC50 obtained from at least three independent experiments of selected molecules performed in duplicate.
T1 sequence (Q14831 35-922 isoform Q14831-2 limits assumed): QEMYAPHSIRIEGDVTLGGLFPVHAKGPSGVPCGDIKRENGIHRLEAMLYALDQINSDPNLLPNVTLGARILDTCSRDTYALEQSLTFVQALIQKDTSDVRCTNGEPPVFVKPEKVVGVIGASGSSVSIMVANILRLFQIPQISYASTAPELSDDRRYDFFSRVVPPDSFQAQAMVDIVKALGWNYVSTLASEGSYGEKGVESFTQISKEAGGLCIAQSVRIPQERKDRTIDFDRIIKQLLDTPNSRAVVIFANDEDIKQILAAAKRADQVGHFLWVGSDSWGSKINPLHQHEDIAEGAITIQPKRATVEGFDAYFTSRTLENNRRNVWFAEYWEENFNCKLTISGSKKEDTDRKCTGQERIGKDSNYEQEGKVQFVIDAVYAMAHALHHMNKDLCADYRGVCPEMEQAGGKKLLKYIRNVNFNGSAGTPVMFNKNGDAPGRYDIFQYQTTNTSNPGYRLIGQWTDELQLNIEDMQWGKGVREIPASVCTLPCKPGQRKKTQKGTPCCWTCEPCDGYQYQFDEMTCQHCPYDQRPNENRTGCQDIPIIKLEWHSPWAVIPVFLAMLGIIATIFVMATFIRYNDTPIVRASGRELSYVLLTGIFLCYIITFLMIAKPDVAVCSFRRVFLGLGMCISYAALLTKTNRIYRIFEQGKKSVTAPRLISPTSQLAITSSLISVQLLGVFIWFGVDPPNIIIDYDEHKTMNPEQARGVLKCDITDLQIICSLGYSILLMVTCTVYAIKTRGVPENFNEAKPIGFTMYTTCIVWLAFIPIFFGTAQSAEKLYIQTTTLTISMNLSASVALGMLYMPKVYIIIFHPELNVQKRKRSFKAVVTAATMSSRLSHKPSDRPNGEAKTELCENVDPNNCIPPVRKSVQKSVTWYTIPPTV
By IC50 is commonly meant the concentration at which inhibition is half-maximal. Consider `Cc1c(-c2ccnc(OC(F)F)c2)cc2cnn(-c3ncccn3)c(=O)n12` [1-147], for which the IC50 is under 100 nM.
For the compound `Cc1c(-c2cccc(N3C4CCC3CC4)c2)c(C)n2c(=O)n(-c3ncccn3)ncc12` [1-131], the IC50 lay within 100 to 1000 nM.
Turning to `Cc1c(-c2cccc(N3CCC3)c2)c(C)n2c(=O)n(-c3ccc(N4CCOCC4)nc3)ncc12` [1-32], the IC50 lay within 100 to 1000 nM.
As for `CCn1ncc2c(C)c(-c3cccc(N4CCC4)c3)c(C)n2c1=O` [1-10, 7-[3-(azetidin-1-yl)phenyl]-3-ethyl-6,8-dimethyl-pyrrolo[1,2-d][1,2,4]triazin-4-one], the figure is 100 to 1000 nM.
Take `Cc1c(-c2cccc(N3CCC3)c2)c(C)n2c(=O)n(-c3ccc(N(C(=O)OC(C)(C)C)C(=O)OC(C)(C)C)cn3)ncc12` [1-28]: the IC50 was in the range of 1000 to 10000 nM.
With `CCn1ncc2c(C)c(-c3cccc4c3CCN4C)c(C)n2c1=O` [1-100] the figure was 100 to 1000 nM.
With `Cc1c(OC(F)F)cccc1-c1c(C)c2cnn(-c3ncccn3)c(=O)n2c1C` [1-120] the figure was 100 to 1000 nM; with `Cc1c(-c2cccc(OC(F)F)c2)cc2cnn(-c3ccccn3)c(=O)n12` [1-70], 100 to 1000 nM.
In the case of `Cc1c(OC2CC2)cccc1-c1c(C)c2cnn(-c3ccccn3)c(=O)n2c1C` [1-8], the half-inhibitory concentration (IC50) was in the range of 100 to 1000 nM.
Turning to `COc1cccc(-c2c(C)c3cnn(-c4ncccn4)c(=O)n3c2C)c1F` [1-133], the 50% inhibitory concentration (IC50) is 100 to 1000 nM.
With `Cc1c(-c2cccc3c2CCN3C)cc2cnn(-c3ccccn3)c(=O)n12` [1-64] the figure was under 100 nM; with `COc1cc(-c2c(C)c3cnn(-c4ncccn4)c(=O)n3c2C)ccn1` [1-139], 100 to 1000 nM; with `Cc1c(OC2CC2)cccc1-c1c(C)c2cnn(-c3ncc(F)cn3)c(=O)n2c1C` [1-49], 100 to 1000 nM.
Turning to `COc1cccc(-c2c(C)c3cnn(-c4ccccn4)c(=O)n3c2C)c1C` [1-4], the half-inhibitory concentration (IC50) lay within 100 to 1000 nM.
In the case of `COc1ccc(F)c(-c2cc3cnn(-c4ncccn4)c(=O)n3c2C)c1` [1-105], the IC50 lay in the range of 100 to 1000 nM.
With `COc1cccc(-c2cc3cnn(-c4ncccn4)c(=O)n3c2C)c1F` [1-112], the IC50 lay within 100 to 1000 nM.
With `Cc1c(-c2ccnc(OC(F)F)c2)c(C)n2c(=O)n(-c3ncccn3)ncc12` [1-141] the figure was 1000 to 10000 nM; with `Cc1c(-c2cccc(OC3CC3)c2)c(C)n2c(=O)n(-c3ccccn3)ncc12` [1-20], under 100 nM; with `COc1ccc(F)c(-c2c(C)c3cnn(-c4ncccn4)c(=O)n3c2C)c1` [1-127], under 100 nM.
With `Cc1c(-c2cccc(OC(F)F)c2)c(C)n2c(=O)n(-c3ncc(F)cn3)ncc12` [1-17] the figure was under 100 nM; with `Cc1ccc(N2CCC2)cc1-c1c(C)c2cnn(-c3ccccn3)c(=O)n2c1C` [1-16], 100 to 1000 nM; with `Cc1c(-c2ccnc(OC(F)F)c2)c(C)n2c(=O)n(-c3ccccn3)ncc12` [1-140], 100 to 1000 nM.
`Cc1c(-c2cccc3c2CCN3C2CC2)c(C)n2c(=O)n(-c3ncccn3)ncc12` [1-99]: the half-inhibitory concentration (IC50) lay within 100 to 1000 nM.
With `COCCNc1ccc(-n2ncc3c(C)c(-c4cccc(N5CCC5)c4)c(C)n3c2=O)nc1` [1-35] the figure was 100 to 1000 nM; with `COc1ccc(-c2cc3cnn(-c4ncccn4)c(=O)n3c2C)cn1` [1-144], 100 to 1000 nM; with `Cc1c(-c2cccc3c2ccn3C2CC2)c(C)n2c(=O)n(-c3ncccn3)ncc12` [1-96], under 100 nM.
As for `COc1cccc(-c2cc3cnn(-c4ncccn4)c(=O)n3c2C)c1C` [1-76], the figure is under 100 nM; as for `COc1cc(F)cc(-c2cc3cnn(-c4ccccn4)c(=O)n3c2C)c1` [1-101], 100 to 1000 nM; as for `COc1cccc(-c2cc3cnn(-c4ncccn4)c(=O)n3c2C)c1` [1-61], 100 to 1000 nM.
Take `COc1ccc(-c2c(C)c3cnn(-c4ccccn4)c(=O)n3c2C)cc1` [1-130]: the IC50 lay within 100 to 1000 nM.
As for `Cc1c(-c2c(C)c3cnn(-c4ccccn4)c(=O)n3c2C)cccc1N1CCC1` [1-13], the figure is under 100 nM; as for `Cc1c(-c2cc3cnn(-c4ccccn4)c(=O)n3c2C)ccnc1OC1CC1` [1-143], under 100 nM.
With `COc1ccc(-c2c(C)c3cnn(-c4ncccn4)c(=O)n3c2C)c(C)n1` [1-137] the figure was 100 to 1000 nM; with `Cc1c(-c2cc(F)cc(N3CCC3)c2)c(C)n2c(=O)n(-c3ccccn3)ncc12` [1-30], under 100 nM; with `Cc1c(OC2CC2)cccc1-c1c(C)c2cnn(-c3ccc(C(C)(C)O)cn3)c(=O)n2c1C` [1-59], under 100 nM.
For `Cc1c(-c2cccc(N3CCC3)c2)c(C)n2c(=O)n(-c3ccc(C(C)(C)O)cn3)ncc12` [1-24, 7-[3-(azetidin-1-yl)phenyl]-3-[5-(1-hydroxy-1-methyl-ethyl)-2-pyridyl]-6,8-dimethyl-pyrrolo[1,2-d][1,2,4]triazin-4-one], the IC50 is under 100 nM.
As for `COc1cc(-c2cc3cnn(-c4ccccn4)c(=O)n3c2C)ccc1F` [1-107], the figure is under 100 nM.
With `Cc1c(-c2cccc3c2CCN3C(C)C)cc2cnn(-c3ccccn3)c(=O)n12` [1-66], the concentration for half-maximal inhibition (IC50) was 100 to 1000 nM.
As for `COc1cccc(-c2cc3cnn(-c4ccccn4)c(=O)n3c2C)c1Cl` [1-73], the figure is under 100 nM; as for `COc1cc(-c2cc3cnn(-c4ncccn4)c(=O)n3c2C)ccc1F` [1-111], under 100 nM.
With `Cc1c(-c2cccc(OC3CC3)c2)cc2cnn(-c3ccccn3)c(=O)n12` [1-83] the figure was 1000 to 10000 nM; with `COc1cc(-c2cc3cnn(-c4ccccn4)c(=O)n3c2C)ccn1` [1-106], under 100 nM; with `Cc1c(-c2cccc(OC3CC3)c2Cl)cc2cnn(-c3ccccn3)c(=O)n12` [1-104], under 100 nM.
On to `Cc1c(-c2ccnc3c2CCN3C)cc2cnn(-c3ncccn3)c(=O)n12` [1-119], for which the IC50 lay in the range of 100 to 1000 nM.
As for `Cc1c(-c2cccc3c2CCCN3C)c(C)n2c(=O)n(-c3ncccn3)ncc12` [1-86], the IC50 lay in the range of 100 to 1000 nM.
As for `Cc1c(-c2cccc(F)c2Cl)c(C)n2c(=O)n(-c3ncccn3)ncc12` [1-123], the IC50 is under 100 nM.
For `COc1ccc(-c2c(C)c3cnn(-c4ncccn4)c(=O)n3c2C)cn1` [1-132], the 50% inhibitory concentration (IC50) was under 100 nM.
`COc1cnc(-n2ncc3c(C)c(-c4ccc(C)cc4C)c(C)n3c2=O)nc1` [1-46]: the IC50 lay in the range of 100 to 1000 nM.
Take `Cc1c(-c2cccc(N3CCC3)c2)c(C)n2c(=O)n(-c3ncc(OCCN(C)C)cn3)ncc12` [1-43]: the IC50 was 100 to 1000 nM.
As for `Cc1c(-c2cccc3c2OCCN3C)cc2cnn(-c3ncccn3)c(=O)n12` [1-63], the figure is under 100 nM; as for `Cc1c(-c2cccc3c2ccn3C)c(C)n2c(=O)n(-c3ncccn3)ncc12` [1-97], 100 to 1000 nM; as for `Cc1c(OC(F)F)cccc1-c1cc2cnn(-c3ccccn3)c(=O)n2c1C` [1-71], under 100 nM.
Consider `Cc1c(-c2cccc(OC3CC3)c2)c(C)n2c(=O)n(-c3ncccn3)ncc12` [1-29], for which the concentration for half-maximal inhibition (IC50) is under 100 nM.
Take `Cc1c(-c2cccc(OC3CC3)c2)cc2cnn(-c3ncccn3)c(=O)n12` [1-88]: the IC50 is under 100 nM.
With `Cc1c(-c2cccc(N3CCC3)c2)c(C)n2c(=O)n(-c3ccc(CCO)cn3)ncc12` [1-11] the figure was 1000 to 10000 nM; with `COc1nccc(-c2cc3cnn(-c4ccccn4)c(=O)n3c2C)c1F` [1-116], 100 to 1000 nM.
Take `COc1cccc(-c2c(C)c3cnn(-c4ncccn4)c(=O)n3c2C)n1` [1-98]: the IC50 lay within 100 to 1000 nM.

For the origin of these results see patent publication US20260184715A1, “NOVEL PYRROLO[1,2-d][1,2,4] TRIAZINONE DERIVATIVES AS NEGATIVE ALLOSTERIC MODULATORS OF MGLU7 RECEPTORS” (Neurosterix Pharma Sarl., priority 2022, published 2026).
